Assay results from patent publication US20140315933A1, “CHEMICAL COMPOUNDS” (Pfizer Limited, priority 2013, published 2014).
Counter-ions that a name gives are not always drawn.

Molecular target: T1, URAT-1 transporter (Homo sapiens, UniProt Q96S37)
T1 construct: expressed in transfected cells
Assay: URAT-1 inhibitor activity: [14C]-uric acid uptake into CHO-URAT1(L)GFP#8 (CHO#8) cells, scintillation proximity
Format: cell-based
Summary of the method: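 CHO cells stably expressing human URAT1 long isoform C-terminally fused to eGFP, preincubated 1 hour in chloride-containing buffer, then 15 minutes with compound (0–10 μM, 0.25% DMSO) in chloride-free buffer pH 7.4. [14C]-uric acid at 30 nM final added; uptake read by scintillation proximity after three hours at room temperature, dark.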

T1 sequence (Q96S37 with tags, fused parts or gaps): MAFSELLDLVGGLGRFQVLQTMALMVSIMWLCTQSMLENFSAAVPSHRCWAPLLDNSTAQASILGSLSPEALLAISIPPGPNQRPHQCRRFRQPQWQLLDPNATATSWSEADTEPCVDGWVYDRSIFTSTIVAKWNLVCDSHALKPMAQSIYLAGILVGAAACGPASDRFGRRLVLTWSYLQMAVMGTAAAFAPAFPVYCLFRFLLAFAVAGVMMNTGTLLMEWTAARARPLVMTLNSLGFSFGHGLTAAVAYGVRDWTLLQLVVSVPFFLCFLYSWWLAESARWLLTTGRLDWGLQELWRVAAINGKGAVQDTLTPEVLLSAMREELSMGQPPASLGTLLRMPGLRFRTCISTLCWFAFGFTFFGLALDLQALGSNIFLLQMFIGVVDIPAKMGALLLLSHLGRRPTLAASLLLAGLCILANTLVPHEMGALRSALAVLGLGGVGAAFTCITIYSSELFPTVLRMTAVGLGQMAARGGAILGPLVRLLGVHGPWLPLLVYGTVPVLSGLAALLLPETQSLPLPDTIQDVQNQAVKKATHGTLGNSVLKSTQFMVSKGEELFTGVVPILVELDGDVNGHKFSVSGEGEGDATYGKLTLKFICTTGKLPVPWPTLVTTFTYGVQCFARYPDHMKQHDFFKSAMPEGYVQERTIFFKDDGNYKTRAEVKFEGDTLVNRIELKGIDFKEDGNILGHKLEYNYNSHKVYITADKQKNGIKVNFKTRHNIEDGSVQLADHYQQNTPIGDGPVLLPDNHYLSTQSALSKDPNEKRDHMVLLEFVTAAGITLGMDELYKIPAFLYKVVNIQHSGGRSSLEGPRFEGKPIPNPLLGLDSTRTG

Q: With `CCOc1ccc(Oc2ccc(S(=O)(=O)Nc3ncns3)cc2C#N)cc1` [compound 279] as the compound, how does the IC50 read?
A: > 10000 nM

Q: For `COc1ccc(Cl)c(Oc2cc(F)c(S(=O)(=O)Nc3nncs3)cc2Cl)c1` [compound 326], which IC50 is on record?
A: 369 nM

Q: Which IC50 does the source give for `COc1ccc(F)c(Oc2cc(F)c(S(=O)(=O)Nc3nncs3)cc2Cl)c1` [compound 315] here?
A: 2180 nM

Q: Which IC50 does the source give for `N#Cc1cc(S(=O)(=O)Nc2ncc(Cl)s2)ccc1Oc1cc(Cl)ccc1Cl` [Example 86, N-(5-chloro-1,3-thiazol-2-yl)-3-cyano-4-(2,5-dichlorophenoxy)benzenesulfonamide] here?
A: 680 nM

Q: How did the IC50 turn out when `N#Cc1cc(F)ccc1Oc1ccc(S(=O)(=O)Nc2ncns2)cc1C#N` [Example 47, 3-cyano-4-(2-cyano-4-fluorophenoxy)-N-(1,2,4-thiadiazol-5-yl)benzenesulfonamide] was run?
A: 5390 nM

Q: `N#Cc1cc(S(=O)(=O)Nc2ncns2)ccc1Oc1ccc(Cl)cc1OC1CCC1` [Example 30, 4-[4-chloro-2-(cyclobutyloxy)phenoxy]-3-cyano-N-(1,2,4-thiadiazol-5-yl)benzenesulfonamide diethylamine salt] was tested. Which IC50 did it give?
A: 609 nM

Q: For `N#Cc1ccc(Oc2ccc(S(=O)(=O)Nc3ncns3)cc2C#N)c(F)c1` [Example 51, 3-cyano-4-(4-cyano-2-fluorophenoxy)-N-(1,2,4-thiadiazol-5-yl)benzenesulfonamide], which IC50 is on record?
A: 2140 nM

Q: For `N#Cc1cc(S(=O)(=O)Nc2ncc(F)s2)ccc1Oc1ccc(Cl)c(C(F)(F)F)c1` [Example 141, 4-[4-chloro-3-(trifluoromethyl)phenoxy]-3-cyano-N-(5-fluoro-1,3-thiazol-2-yl)benzenesulfonamide], which IC50 is on record?
A: 737 nM

Q: `Cc1c(Oc2cc(F)c(S(=O)(=O)Nc3nncs3)cc2Cl)ccc(F)c1F` [compound 318, 5-chloro-4-(3,4-difluoro-2-methylphenoxy)-2-fluoro-N-(1,3,4-thiadiazol-2-yl)benzenesulfonamide] was tested. Which IC50 did it give?
A: 145 nM

Q: Which IC50 does the source give for `N#Cc1cc(S(=O)(=O)Nc2nccs2)ccc1Oc1ccc(C(F)(F)F)cc1Br` [compound 166] here?
A: 2680 nM

Q: How did the IC50 turn out when `[2H]C([2H])([2H])Oc1cc(Cl)ccc1Oc1ccc(S(=O)(=O)Nc2ncns2)cc1C#N` [Example 57] was run?
A: 517 nM

Q: For `CSc1ncccc1Oc1cc(F)c(S(=O)(=O)Nc2nncs2)cc1Cl` [compound 310], which IC50 is on record?
A: 864 nM

Q: With `CC(C)Oc1ncc(Oc2ccc(S(=O)(=O)Nc3nncs3)cc2C#N)cc1Cl` [Example 333] as the compound, how does the IC50 read?
A: 7540 nM

Q: For `Cc1c(Oc2ccc(S(=O)(=O)Nc3ncc(F)s3)cc2C#N)ccc(F)c1F` [Example 128, 3-cyano-4-(3,4-difluoro-2-(methylphenoxy)-N-5-fluoro-1,3-thiazol-2-yl)benzenesulfonamide], which IC50 is on record?
A: 1190 nM

Q: `N#Cc1cc(S(=O)(=O)Nc2ncc(F)s2)ccc1Oc1ccccc1F` [Example 104, 3-cyano-4-(2-fluorophenoxy)-N-(5-fluoro-1,3-thiazol-2-yl)benzenesulfonamide] was tested. Which IC50 did it give?
A: 2620 nM

Q: How did the IC50 turn out when `COc1ccc(Oc2cc(F)c(S(=O)(=O)Nc3nncs3)cc2Cl)cc1Cl` [compound 320] was run?
A: > 7610 nM

Q: How did the IC50 turn out when `CC(C)(O)c1cccc(Oc2ccc(S(=O)(=O)Nc3ncc(F)s3)cc2C#N)c1` [Example 135, 3-cyano-N-(5-fluoro-1,3-thiazol-2-yl)-4-[3-(2-hydroxypropan-2-yl)phenoxy]benzenesulfonamide] was run?
A: 1730 nM

Q: How did the IC50 turn out when `N#Cc1cc(Cl)ccc1Oc1ccc(S(=O)(=O)Nc2ncns2)cc1C#N` [Example 22, 4-(4-chloro-2-cyanophenoxy)-3-cyano-N-(1,2,4-thiadiazol-5-yl)benzenesulfonamide] was run?
A: 3160 nM

Q: For `Cc1cccc(Cl)c1Oc1ccc(S(=O)(=O)Nc2ncc(F)s2)cc1C#N` [Example 127, 4-(2-chloro-6-methylphenoxy)-3-cyano-N-(5-fluoro-1,3-thiazol-2-yl)benzenesulfonamide], which IC50 is on record?
A: 2290 nM

Q: Which IC50 does the source give for `Cc1cc(S(=O)(=O)Nc2nncs2)c(F)cc1Oc1ccc(F)c(C#N)c1` [compound 214] here?
A: > 10000 nM

Q: With `COc1cccc(Oc2cc(F)c(S(=O)(=O)Nc3nncs3)cc2Cl)c1` [compound 306] as the compound, how does the IC50 read?
A: 2410 nM

Q: Which IC50 does the source give for `N#Cc1cc(S(=O)(=O)Nc2nccs2)ccc1Oc1ccc(OCC(F)(F)F)nc1` [Example 190, 3-cyano-N-(1,3-thiazol-2-yl)-4-{[6-(2,2,2-trifluoroethoxy)pyridin-3-yl]oxy}benzenesulfonamide] here?
A: > 10000 nM

Q: Which IC50 does the source give for `N#Cc1cc(S(=O)(=O)Nc2ncc(Cl)s2)ccc1Oc1ccc(C(F)(F)F)cc1` [Example 88, N-(5-chloro-1,3-thiazol-2-yl)-3-cyano-4-[4-(trifluoromethyl)phenoxy]benzenesulfonamide] here?
A: > 6720 nM

Q: `N#Cc1cc(S(=O)(=O)Nc2ncc(Cl)s2)ccc1Oc1ccc(F)c(F)c1` [compound 197, N-(5-chloro-1,3-thiazol-2-yl)-3-cyano-4-(3,4-difluorophenoxy)benzenesulfonamide] was tested. Which IC50 did it give?
A: 225 nM

Q: How did the IC50 turn out when `N#Cc1cc(S(=O)(=O)Nc2ncc(F)s2)ccc1Oc1ccc(F)c(C(F)(F)F)c1` [Example 143, 3-cyano-N-(5-fluoro-1,3-thiazol-2-yl)-4-[4-fluoro-3-(trifluoromethyl)phenoxy]benzenesulfonamide] was run?
A: 566 nM

Q: For `Cc1ccc(F)cc1Oc1ccc(S(=O)(=O)Nc2ncc(F)s2)cc1C#N` [Example 105, 3-cyano-4-(5-fluoro-2-methylphenoxy)-N-(5-fluoro-1,3-thiazol-2-yl)benzenesulfonamide], which IC50 is on record?
A: > 1790 nM

Q: For `CC(C)c1ncccc1Oc1ccc(S(=O)(=O)Nc2ncns2)cc1C#N` [compound 274, trifluoroacetic acid salt], which IC50 is on record?
A: > 10000 nM

Q: With `CCSc1ncccc1Oc1cc(F)c(S(=O)(=O)Nc2nncs2)cc1Cl` [compound 304] as the compound, how does the IC50 read?
A: 1010 nM

Q: `N#Cc1cc(S(=O)(=O)Nc2ncc(F)s2)ccc1Oc1c(F)ccc(F)c1F` [Example 115, 3-cyano-N-(5-fluoro-1,3-thiazol-2-yl)-4-(2,3,6-trifluorophenoxy)benzenesulfonamide] was tested. Which IC50 did it give?
A: 1630 nM

Q: How did the IC50 turn out when `CC(C)c1cccc(Oc2ccc(S(=O)(=O)Nc3ncc(F)s3)cc2C#N)c1` [Example 107, 3-cyano-N-(5-fluoro-1,3-thiazol-2-yl)-4-[3-(propan-2-yl)phenoxy]benzenesulfonamide] was run?
A: > 6780 nM

Q: Which IC50 does the source give for `O=S(=O)(Nc1nncs1)c1ccc(Oc2ccc(F)c(F)c2)c(Cl)c1` [compound 204] here?
A: 317 nM

Q: For `N#Cc1cc(Oc2ccc(S(=O)(=O)Nc3cscn3)cc2I)ccc1F` [compound 240], which IC50 is on record?
A: 577 nM

Q: How did the IC50 turn out when `O=S(=O)(Nc1cscn1)c1cc(Cl)c(Oc2ccc(Cl)cc2OC(F)F)cc1F` [Example 159, 5-chloro-4-[4-chloro-2-(difluoromethoxy)phenoxy]-2-fluoro-N-(1,3-thiazol-4-yl)benzenesulfonamide] was run?
A: 499 nM

Q: `COc1ccc(Oc2ccc(S(=O)(=O)Nc3ncns3)cc2C#N)cc1Cl` [compound 268] was tested. Which IC50 did it give?
A: 1470 nM

Q: How did the IC50 turn out when `N#Cc1cc(S(=O)(=O)Nc2ncns2)ccc1Oc1cc(C(F)(F)F)ccc1Cl` [Example 45, 4-[2-chloro-5-(trifluoromethyl)phenoxy]-3-cyano-N-(1,2,4-thiadiazol-5-yl)benzenesulfonamide] was run?
A: 1020 nM

Q: Which IC50 does the source give for `N#Cc1cc(S(=O)(=O)Nc2ncc(F)s2)ccc1Oc1cc(F)c(F)c(F)c1` [Example 118, 3-cyano-N-(5-fluoro-1,3-thiazol-2-yl)-4-(3,4,5-trifluorophenoxy)benzenesulfonamide] here?
A: 1380 nM

Q: For `CCc1cc(F)ccc1Oc1cc(F)c(S(=O)(=O)Nc2cscn2)cc1Br` [Example 78, 5-bromo-4-(2-ethyl-4-fluorophenoxy)-2-fluoro-N-(1,3-thiazol-4-yl)benzenesulfonamide], which IC50 is on record?
A: 165 nM
